Target: β-glucosidase B (BglB) (Paenibacillus polymyxa, UniProt P22505)
Assay: hydrolysis monitored at […] nm, Michaelis-Menten nonlinear fit
Format: biochemical
Conditions: 0-100 mM substrate, 15 min

Chain of β-glucosidase B (BglB) (P22505 whole entry): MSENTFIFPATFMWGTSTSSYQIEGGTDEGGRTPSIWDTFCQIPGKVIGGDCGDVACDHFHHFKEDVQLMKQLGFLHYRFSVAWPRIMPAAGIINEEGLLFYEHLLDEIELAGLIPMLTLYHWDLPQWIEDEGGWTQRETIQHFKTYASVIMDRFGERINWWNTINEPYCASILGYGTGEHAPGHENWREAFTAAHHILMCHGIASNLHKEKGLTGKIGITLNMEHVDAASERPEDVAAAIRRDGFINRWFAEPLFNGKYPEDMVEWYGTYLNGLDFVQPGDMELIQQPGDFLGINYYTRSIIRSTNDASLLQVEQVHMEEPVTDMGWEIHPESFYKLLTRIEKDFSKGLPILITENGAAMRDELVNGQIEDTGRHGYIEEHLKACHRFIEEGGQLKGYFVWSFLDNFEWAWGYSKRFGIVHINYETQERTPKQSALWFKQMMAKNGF

- Km: 5 ± 0.3 mM
SMILES: O=[N+]([O-])c1ccc(O[C@@H]2O[C@H](CO)[C@@H](O)[C@H](O)[C@H]2O)cc1 [pPNG, 4-nitrophenyl-β-D-glucopyranoside]
